Measured values published in US11254686B1 (Corvus Pharmaceuticals, Inc., priority 2017, dated 2022).

What was measured:
adenosine A2A receptor = adenosine A2A receptor (Homo sapiens (Human), UniProt P29274); assay: Adenosine receptor activity assay (Table 1), A2A activity; format: biochemical; conditions: read-out: Ave A2A cAMP IC50
adenosine A2B receptor = adenosine A2B receptor (Homo sapiens (Human), UniProt P29275); assay: Adenosine receptor activity assay (Table 1), A2B activity; format: biochemical; conditions: for Ratio: A2A activity to the A2B activity, A2A/A2B; for IC50: read-out: Ave A2B cAMP IC50
Chain of adenosine A2B receptor (P29275 whole entry): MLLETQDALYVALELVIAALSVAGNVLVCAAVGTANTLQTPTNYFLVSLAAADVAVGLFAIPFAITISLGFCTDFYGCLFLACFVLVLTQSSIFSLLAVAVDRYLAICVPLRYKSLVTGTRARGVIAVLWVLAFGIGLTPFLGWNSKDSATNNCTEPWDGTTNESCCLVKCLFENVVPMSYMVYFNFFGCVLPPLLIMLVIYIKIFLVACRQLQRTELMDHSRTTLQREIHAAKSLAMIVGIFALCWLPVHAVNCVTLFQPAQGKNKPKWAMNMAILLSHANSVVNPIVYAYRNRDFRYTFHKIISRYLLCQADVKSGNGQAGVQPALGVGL

Chain of adenosine A2A receptor (P29274 whole entry): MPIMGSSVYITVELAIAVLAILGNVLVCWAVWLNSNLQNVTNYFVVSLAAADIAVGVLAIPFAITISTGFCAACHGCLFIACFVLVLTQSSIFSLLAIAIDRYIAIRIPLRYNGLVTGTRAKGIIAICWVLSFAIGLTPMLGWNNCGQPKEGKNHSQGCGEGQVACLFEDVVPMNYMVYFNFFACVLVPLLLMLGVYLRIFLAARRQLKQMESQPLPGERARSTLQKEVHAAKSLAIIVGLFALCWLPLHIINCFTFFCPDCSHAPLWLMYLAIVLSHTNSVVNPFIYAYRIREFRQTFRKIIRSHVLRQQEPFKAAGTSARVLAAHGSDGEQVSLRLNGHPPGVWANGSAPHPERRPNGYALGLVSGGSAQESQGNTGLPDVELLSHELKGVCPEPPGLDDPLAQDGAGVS

Cc1cc2nc(N[C@@H](C)c3ccccn3)nc(C(=O)N3CC(CNC(=O)C(C)(C)C)C3)c2s1 [Example Z527, (S)—N-((1-(6-Methyl-2-((1-(pyridin-2-yl)ethyl)amino)thieno[3,2-d]pyrimidine-4-carbonyl)azetidin-3-yl)methyl)pivalamide]
IC50 (adenosine A2A receptor): > 500 nM | Ratio (adenosine A2B receptor): 7.31 | IC50 (adenosine A2B receptor): 50 to 100 nM

CC(=O)NC1CN(C(=O)c2nc(N[C@@H](C)c3ccccn3)nc3ccsc23)C1 [Example Z533, (S)—N-(1-(2-((1-(pyridin-2-yl)ethyl)amino)thieno[3,2-d]pyrimidine-4-carbonyl)azetidin-3-yl)acetamide]
IC50 (adenosine A2A receptor): 100 to 500 nM | IC50 (adenosine A2B receptor): 100 to 500 nM

Cc1cc2nc(N[C@@H](C)c3cncc(F)c3)nc(C(=O)NCC3CCNCC3)c2s1 [Example Z534, (S)-2-((1-(5-Fluoropyridin-3-yl)ethyl)amino)-6-methyl-N-(piperidin-4-ylmethyl)thieno[3,2-d]pyrimidine-4-carboxamide]
IC50 (adenosine A2A receptor): > 500 nM | Ratio (adenosine A2B receptor): 57.93 | IC50 (adenosine A2B receptor): 50 to 100 nM

C[C@H](Nc1nc(C(=O)NCCN)c2sccc2n1)c1cncc(F)c1 [Example Z536, (S)—N-(2-Aminoethyl)-2-((1-(5-fluoropyridin-3-yl)ethyl)amino)thieno[3,2-d]pyrimidine-4-carboxamide]
IC50 (adenosine A2A receptor): > 500 nM | Ratio (adenosine A2B receptor): 10.26 | IC50 (adenosine A2B receptor): > 500 nM

C[C@H](Nc1nc(C(=O)NCCNC(=O)C(C)(C)C)c2sccc2n1)c1cncc(F)c1 [Example Z537, (S)-2-((1-(5-Fluoropyridin-3-yl)ethyl)amino)-N-(2-pivalamidoethyl)thieno[3,2-d]pyrimidine-4-carboxamide]
IC50 (adenosine A2A receptor): 100 to 500 nM | Ratio (adenosine A2B receptor): 0.87 | IC50 (adenosine A2B receptor): 100 to 500 nM

C[C@H](Nc1nc(C(=O)NCCNS(C)(=O)=O)c2sccc2n1)c1cncc(F)c1 [Example Z538, (S)-2-((1-(5-Fluoropyridin-3-yl)ethyl)amino)-N-(2-(methylsulfonamido)ethyl)thieno[3,2-d]pyrimidine-4-carboxamide]
IC50 (adenosine A2A receptor): > 500 nM | Ratio (adenosine A2B receptor): 12.33 | IC50 (adenosine A2B receptor): 10 to 50 nM

CC(=O)N1CC(CCNC(=O)c2nc(N[C@@H](C)c3cncc(F)c3)nc3ccsc23)C1 [Example Z539, (S)—N-(2-(1-Acetylazetidin-3-yl)ethyl)-2-((1-(5-fluoropyridin-3-yl)ethyl)amino)thieno[3,2-d]pyrimidine-4-carboxamide]
IC50 (adenosine A2A receptor): 100 to 500 nM | IC50 (adenosine A2B receptor): 10 to 50 nM

C[C@H](Nc1nc(C(=O)NC2CN(C(=O)C(C)(C)C)C2)c2sccc2n1)c1cncc(F)c1 [Example Z545, (S)-2-((1-(5-Fluoropyridin-3-yl)ethyl)amino)-N-(1-pivaloylazetidin-3-yl)thieno[3,2-d]pyrimidine-4-carboxamide]
IC50 (adenosine A2A receptor): 100 to 500 nM | IC50 (adenosine A2B receptor): 100 to 500 nM

C[C@H](Nc1nc(C(=O)N2CC(C(=O)NCCO)C2)c2sccc2n1)c1cncc(F)c1 [Example Z547, (S)-1-(2-((1-(5-Fluoropyridin-3-yl)ethyl)amino)thieno[3,2-d]pyrimidine-4-carbonyl)-N-(2-hydroxyethyl)azetidine-3-carboxamide]
IC50 (adenosine A2A receptor): > 500 nM | Ratio (adenosine A2B receptor): 43.40 | IC50 (adenosine A2B receptor): 50 to 100 nM

C[C@H](Nc1nc(C(=O)N2CCC(C(=O)NC(C)(C)C)C2)c2sccc2n1)c1cncc(F)c1 (stereo partly drawn) [Example Z548, N-(tert-Butyl)-1-(2-(((S)-1-(5-fluoropyridin-3-yl)ethyl)amino)thieno[3,2-d]pyrimidine-4-carbonyl)pyrrolidine-3-carboxamide]
IC50 (adenosine A2A receptor): 100 to 500 nM | IC50 (adenosine A2B receptor): 10 to 50 nM

C[C@H](Nc1nc(C(=O)N2CC(CN(C)C(=O)CC(C)(C)C)C2)c2sccc2n1)c1cncc(F)c1 [Example Z550, (S)—N-((1-(2-((1-(5-Fluoropyridin-3-yl)ethyl)amino)thieno[3,2-d]pyrimidine-4-carbonyl)azetidin-3-yl)methyl)-N,3,3-trimethylbutanamide]
IC50 (adenosine A2A receptor): 50 to 100 nM | Ratio (adenosine A2B receptor): 4.79 | IC50 (adenosine A2B receptor): 10 to 50 nM

COc1ccc([C@H](C)Nc2nc(C(=O)N3CC(NC(=O)OC(C)C)C3)c3sc(C)cc3n2)cc1 [Example Z555, Isopropyl (S)-(1-(2-((1-(4-methoxyphenyl)ethyl)amino)-6-methylthieno[3,2-d]pyrimidine-4-carbonyl)azetidin-3-yl)carbamate]
IC50 (adenosine A2A receptor): 50 to 100 nM | Ratio (adenosine A2B receptor): 0.18 | IC50 (adenosine A2B receptor): 100 to 500 nM

COc1ccc([C@H](C)Nc2nc(C(=O)N3CC(NC(C)=O)C3)c3sc(C)cc3n2)cc1 [Example Z556, (S)—N-(1-(2-((1-(4-Methoxyphenyl)ethyl)amino)-6-methylthieno[3,2-d]pyrimidine-4-carbonyl)azetidin-3-yl)acetamide]
IC50 (adenosine A2A receptor): 50 to 100 nM | Ratio (adenosine A2B receptor): 0.22 | IC50 (adenosine A2B receptor): 100 to 500 nM

C[C@H](Nc1nc(C(=O)N2CC(C(N)=O)C2)c2sccc2n1)c1cncc(F)c1 [Example Z563, (S)-1-(2-((1-(5-Fluoropyridin-3-yl)ethyl)amino)thieno[3,2-d]pyrimidine-4-carbonyl)azetidine-3-carboxamide]
IC50 (adenosine A2A receptor): > 500 nM | Ratio (adenosine A2B receptor): 16.87 | IC50 (adenosine A2B receptor): 10 to 50 nM

CC(C)C(=O)N1CCN(C(=O)c2nc(N[C@@H](C)c3cncc(F)c3)nc3ccsc23)C1 [Example Z564, (S)-1-(3-(2-((1-(5-Fluoropyridin-3-yl)ethyl)amino)thieno[3,2-d]pyrimidine-4-carbonyl)imidazolidin-1-yl)-2-methylpropan-1-one]
IC50 (adenosine A2A receptor): > 500 nM | Ratio (adenosine A2B receptor): 18.15 | IC50 (adenosine A2B receptor): 100 to 500 nM

C[C@H](Nc1nc(C(=O)N2CCN(C(=O)C(C)(C)C)C2)c2sccc2n1)c1cncc(F)c1 [Example Z565, (S)-1-(3-(2-((1-(5-Fluoropyridin-3-yl)ethyl)amino)thieno[3,2-d]pyrimidine-4-carbonyl)imidazolidin-1-yl)-2,2-dimethylpropan-1-one]
IC50 (adenosine A2A receptor): > 500 nM | Ratio (adenosine A2B receptor): 6.39 | IC50 (adenosine A2B receptor): > 500 nM

C[C@H](Nc1nc(C(=O)N2CCN(C(=O)OCC(C)(C)C)C2)c2sccc2n1)c1cncc(F)c1 [Example Z566, Neopentyl (S)-3-(2-((1-(5-fluoropyridin-3-yl)ethyl)amino)thieno[3,2-d]pyrimidine-4-carbonyl)imidazolidine-1-carboxylate]
IC50 (adenosine A2A receptor): > 500 nM | Ratio (adenosine A2B receptor): 3.10 | IC50 (adenosine A2B receptor): > 500 nM

COC[C@@H]1CCN1C(=O)c1nc(N[C@@H](C)c2cncc(F)c2)nc2ccsc12 [Example Z567, (2-(((S)-1-(5-Fluoropyridin-3-yl)ethyl)amino)thieno[3,2-d]pyrimidin-4-yl)((S)-2-(methoxymethyl)azetidin-1-yl)methanone]
IC50 (adenosine A2A receptor): > 500 nM | Ratio (adenosine A2B receptor): 8.82 | IC50 (adenosine A2B receptor): 100 to 500 nM

COC[C@H]1CCN1C(=O)c1nc(N[C@@H](C)c2cncc(F)c2)nc2ccsc12 [Example Z568, (2-(((S)-1-(5-Fluoropyridin-3-yl)ethyl)amino)thieno[3,2-d]pyrimidin-4-yl)((R)-2-(methoxymethyl)azetidin-1-yl)methanone]
IC50 (adenosine A2A receptor): > 500 nM | Ratio (adenosine A2B receptor): 12.84 | IC50 (adenosine A2B receptor): 50 to 100 nM

COC[C@@H]1CCN1C(=O)c1nc(N[C@@H](C)c2cncc(F)c2)nc2cc(C)sc12 [Example Z569, (2-(((S)-1-(5-Fluoropyridin-3-yl)ethyl)amino)-6-methylthieno[3,2-d]pyrimidin-4-yl)((S)-2-(methoxymethyl)azetidin-1-yl)methanone]
IC50 (adenosine A2A receptor): > 500 nM | Ratio (adenosine A2B receptor): 40.75 | IC50 (adenosine A2B receptor): 100 to 500 nM

COC[C@H]1CCN1C(=O)c1nc(N[C@@H](C)c2cncc(F)c2)nc2cc(C)sc12 [Example Z570, (2-(((S)-1-(5-Fluoropyridin-3-yl)ethyl)amino)-6-methylthieno[3,2-d]pyrimidin-4-yl)((R)-2-(methoxymethyl)azetidin-1-yl)methanone]
IC50 (adenosine A2A receptor): > 500 nM | Ratio (adenosine A2B receptor): 84.36 | IC50 (adenosine A2B receptor): 10 to 50 nM

C[C@H](Nc1nc(C(=O)N2CC(C(=O)OC(C)(C)C)C2)c2sccc2n1)c1cncc(F)c1 [Example Z572, tert-Butyl (S)-1-(2-((1-(5-fluoropyridin-3-yl)ethyl)amino)thieno[3,2-d]pyrimidine-4-carbonyl)azetidine-3-carboxylate]
IC50 (adenosine A2A receptor): 100 to 500 nM | Ratio (adenosine A2B receptor): 2.90 | IC50 (adenosine A2B receptor): 10 to 50 nM

CCNC1CN(C(=O)c2nc(N[C@@H](C)c3cncc(F)c3)nc3cc(C)sc23)C1 [Example Z574, (S)-(3-(Ethylamino)azetidin-1-yl)(2-((1-(5-fluoropyridin-3-yl)ethyl)amino)-6-methylthieno[3,2-d]pyrimidin-4-yl)methanone]
IC50 (adenosine A2A receptor): > 500 nM | Ratio (adenosine A2B receptor): 58.55 | IC50 (adenosine A2B receptor): 10 to 50 nM

C[C@H](Nc1nc(C(=O)N2CCN(C(=O)OC(C)(C)C)C2)c2sccc2n1)c1cncc(F)c1 [Example Z584, tert-Butyl (S)-3-(2-((1-(5-fluoropyridin-3-yl)ethyl)amino)thieno[3,2-d]pyrimidine-4-carbonyl)imidazolidine-1-carboxylate]
IC50 (adenosine A2A receptor): > 500 nM | Ratio (adenosine A2B receptor): 2.34 | IC50 (adenosine A2B receptor): 100 to 500 nM

CC(C)NC(=O)N1CCN(C(=O)c2nc(N[C@@H](C)c3cncc(F)c3)nc3ccsc23)C1 [Example Z587, (S)-3-(2-((1-(5-Fluoropyridin-3-yl)ethyl)amino)thieno[3,2-d]pyrimidine-4-carbonyl)-N-isopropylimidazolidine-1-carboxamide]
IC50 (adenosine A2A receptor): 100 to 500 nM | Ratio (adenosine A2B receptor): 1.63 | IC50 (adenosine A2B receptor): 50 to 100 nM

COCCC(=O)N1CCN(C(=O)c2nc(N[C@@H](C)c3cncc(F)c3)nc3ccsc23)C1 [Example Z589, (S)-1-(3-(2-((1-(5-Fluoropyridin-3-yl)ethyl)amino)thieno[3,2-d]pyrimidine-4-carbonyl)imidazolidin-1-yl)-3-methoxypropan-1-one]
IC50 (adenosine A2A receptor): > 500 nM | Ratio (adenosine A2B receptor): 17.96 | IC50 (adenosine A2B receptor): 10 to 50 nM

C[C@H](Nc1nc(C(=O)N2CCN(C(=O)N(C)C)C2)c2sccc2n1)c1cncc(F)c1 [Example Z590, (S)-3-(2-((1-(5-Fluoropyridin-3-yl)ethyl)amino)thieno[3,2-d]pyrimidine-4-carbonyl)-N,N-dimethylimidazolidine-1-carboxamide]
IC50 (adenosine A2A receptor): 100 to 500 nM | Ratio (adenosine A2B receptor): 11.22 | IC50 (adenosine A2B receptor): 10 to 50 nM
